Data as given in patent US20140018435A1, “Transdermal Delivery of Therapeutic Agents Using Poly (Amidoamine) Dendrimers” (UNIVERSITY OF ILLINOIS CHICAGO, priority 2012, published 2014).
Where two headings read alike, the source gives them in different places.

Columns and labels:
[1] = at pH 74; cited from earlier work
[2] = after 24 hours of co-treatment; cited from earlier work
[3] = taken orally for five years; cited from earlier work
[4] = tested on: breast cancer cell growth; conditions: tissue culture; cited from earlier work
[5] = gel, cited from earlier work
[6] = tested on: ER positive invasive breast cancer; conditions: gel, 0.5 or 1 mg per breast per day; cited from earlier work
[7] = 24 hours dendrimer pre-treatment, then 5-FU in isopropyl myristate for 48 hrs; cited from earlier work
[8] = Franz diffusion cell skin permeation/retention, porcine skin; type: in vitro ADME; conditions: detection limit 9 ng/mL

CCCCCCCC/C=C\CCCCCCCC(=O)O [OA, oleic acid]
reported partition coefficient [1]: 7.3

CC(C(=O)O)c1cccc(C(=O)c2ccccc2)c1 (stereo not drawn) [Ketoprofen]
increase of accumulative permeated amount by complexing with PAMAM dendrimers, as compared to the free drug [2]: 3.4 times

CC/C(=C(\c1ccccc1)c1ccc(OCCN(C)C)cc1)c1ccccc1 [tamoxifen]
reduction of breast cancer risk [3]: about 50%

4-hydroxytamoxifen [4-OHT]
potency in suppressing breast cancer cell growth relative to TAM [4]: two-log greater potency | plasma level as fraction of those seen after 20 mg of oral TAM ([5]; 0.5 mg per breast per day): approximately 1/30 | plasma levels of 4-OHT ([5]; 0.5 mg per breast per day): 0.05 ng/mL | plasma level as fraction of those seen after 20 mg of oral TAM ([5]; 1 mg per breast per day): 1/12 | plasma levels of 4-OHT ([5]; 1 mg per breast per day): 0.13 ng/mL | reduction of Ki-67 labeling [6]: reduced the Ki-67 labeling to a similar degree as oral TAM

O=C(O)c1cc(-c2ccc(F)cc2F)ccc1O [Diflunisal]
increase of accumulative permeated amount by complexing with PAMAM dendrimers, as compared to the free drug [2]: 3.2 times

O=c1[nH]cc(F)c(=O)[nH]1 [5-FU, 5-fluorouracil]
fold enhancement in permeability coefficient [7]: Up to 4 fold

CC/C(=C(\c1ccc(O)cc1)c1ccc(OCCNC)cc1)c1ccccc1 [endoxifen]
endoxifen collected from the receiver solution (RP-HPLC) [8]: < 9 ng/mL
